Assay results published in PubChem BioAssay (NCI).
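Cells were grown in 96-well plates and exposed to each compound for 48 hours at five concentrations; endpoints were interpolated linearly between bracketing concentrations, or set to the highest concentration if not reached. At the GI50, growth is halved. TGI marks complete inhibition of growth.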

What was measured:
Assay in all cases: NCI tumour cell line growth inhibition, 48 h
[1] = test system: ACHN renal
[2] = test system: CAKI-1 renal
[3] = test system: HCT-116 colon
[4] = test system: K-562 leukemia
[5] = test system: OVCAR-4 ovarian
[6] = test system: TK-10 renal
[7] = test system: UO-31 renal
[8] = test system: NCI-H522 lung
[9] = test system: HOP-92 NSCLC

CC/C(=N/O)C(C)C(=O)CCC(=O)Nc1ccc(Cl)cc1 (configuration not stated)
TGI [1]: > 100 µM | TGI [2]: > 100 µM | TGI [3]: > 100 µM | TGI [4]: > 100 µM | TGI [5]: > 100 µM | TGI [6]: > 100 µM | TGI [7]: > 100 µM

OCC(O)C(OC1OC(CO)C(O)C(O)C1O)c1nn(-c2ccc(Cl)cc2)c2nc3cc(Cl)c(Cl)cc3nc12 (configuration not stated)
TGI [1]: > 100 µM | TGI [3]: > 100 µM | TGI [4]: > 100 µM | TGI [8]: > 100 µM | TGI [5]: > 100 µM | TGI [6]: > 100 µM | TGI [7]: > 100 µM

Cc1cccc(/C=N/N=C(\N)NO)n1
TGI [1]: > 100 µM | TGI [2]: > 100 µM | TGI [3]: > 100 µM | TGI [9]: 98.3 µM | TGI [4]: > 100 µM | TGI [8]: > 100 µM | TGI [5]: > 100 µM | TGI [6]: > 100 µM

CCOc1ccc2c(c1)[n+]([O-])c(-c1ccc([N+](=O)[O-])cc1)c(N)[n+]2[O-]
TGI [1]: > 100 µM | TGI [2]: > 100 µM | TGI [3]: > 100 µM | TGI [9]: > 100 µM | TGI [4]: > 100 µM | TGI [8]: > 100 µM | TGI [5]: > 100 µM | TGI [7]: > 100 µM

CC(C)CCCC(C)[C@H]1CCC2C3CC=C4C[C@@H](OC(=O)CC(CC(=O)[O-])C(=O)[O-])CC[C@]4(C)C3CC[C@@]21C.N.N.[Pt+4] (some centres not stated)
GI50 [1]: 47.6 µM | TGI [1]: > 100 µM | GI50 [2]: > 100 µM | TGI [2]: > 100 µM | GI50 [3]: > 100 µM | TGI [3]: > 100 µM | GI50 [9]: > 100 µM | TGI [9]: > 100 µM | GI50 [4]: > 100 µM | TGI [4]: > 100 µM | GI50 [5]: > 100 µM | TGI [5]: > 100 µM | GI50 [6]: > 100 µM | TGI [6]: > 100 µM

COC(=O)c1ccc(N/C=C(/C#N)c2ccsc2)cc1
TGI [1]: 18.8 µM | TGI [2]: 30.5 µM | TGI [3]: 21.8 µM | TGI [4]: > 100 µM | TGI [6]: 30.7 µM | TGI [7]: 32.5 µM

CC(C)(C)c1cc(C#N)c2c(c1)C(=O)OC2(c1ccccc1)c1ccccc1C#N (configuration not stated)
TGI [1]: > 100 µM | TGI [2]: > 100 µM | TGI [3]: > 100 µM | TGI [4]: > 100 µM | TGI [8]: > 100 µM | TGI [5]: > 100 µM | TGI [6]: > 100 µM | TGI [7]: > 100 µM

CC(C)(C)[Si](C)(C)O/N=C\c1cccc(O[Si](C)(C)C(C)(C)C)c1
TGI [1]: 32 µM | TGI [2]: 42.2 µM | TGI [3]: 34.1 µM | TGI [9]: 28.8 µM | TGI [4]: 35.4 µM | TGI [5]: 34.2 µM | TGI [6]: 49.8 µM | TGI [7]: 29.6 µM

Cc1ccc(Nn2c(SCC(=O)Nc3nc(-c4ccccc4)cs3)nc(C)c2C)cc1
GI50 [1]: 4.06 µM | TGI [1]: 62.9 µM | GI50 [2]: 1.86 µM | TGI [2]: 6.1 µM | GI50 [3]: 2.82 µM | TGI [3]: 26.5 µM | GI50 [4]: 3.62 µM | TGI [4]: > 100 µM | GI50 [8]: 2.97 µM | TGI [8]: 86.8 µM | GI50 [5]: 2.13 µM | TGI [5]: > 100 µM | GI50 [6]: 18.9 µM | TGI [6]: > 100 µM | GI50 [7]: 2.89 µM | TGI [7]: > 100 µM

CCSc1nnc(-c2ccc3ccccc3c2O)n1-c1ccccc1
GI50 [9]: 5 µM | TGI [9]: 92.1 µM | GI50 [8]: 4.27 µM | TGI [8]: > 100 µM | GI50 [5]: 7.22 µM | TGI [5]: > 100 µM | TGI [6]: > 100 µM

CC1=CC[C@@H]2C(=O)C=CC=C[C@H]12.[C-]#[O+].[C-]#[O+].[C-]#[O+].[Fe]
GI50 [1]: > 100 µM | TGI [1]: > 100 µM | GI50 [3]: > 100 µM | TGI [3]: > 100 µM | GI50 [4]: > 100 µM | TGI [4]: > 100 µM | GI50 [8]: 9.81 µM | TGI [8]: > 100 µM | GI50 [5]: > 100 µM | TGI [5]: > 100 µM | GI50 [6]: > 100 µM | TGI [6]: > 100 µM | GI50 [7]: > 100 µM | TGI [7]: > 100 µM

COc1ccc(C2C(C(=O)O)=C(CO)Oc3cc4c(cc32)OCO4)c(OC)c1 (configuration not stated)
TGI [1]: > 100 µM | TGI [2]: > 100 µM | TGI [3]: > 100 µM | TGI [9]: > 100 µM | TGI [4]: > 100 µM | TGI [5]: > 100 µM | TGI [6]: > 100 µM | TGI [7]: > 100 µM

O=c1c2cc(Br)ccc2n(C2OC(CO)C(O)C(O)C2O)c(=S)n1-c1ccccc1 (configuration not stated)
TGI [1]: > 100 µM | TGI [3]: > 100 µM | TGI [9]: > 100 µM | TGI [4]: > 100 µM | TGI [8]: > 100 µM | TGI [5]: > 100 µM | TGI [6]: > 100 µM | TGI [7]: > 100 µM

[N-]=[N+]=Nc1nnc(CCCCc2nnc(N=[N+]=[N-])o2)o1
TGI [1]: > 100 µM | TGI [3]: > 100 µM | TGI [9]: > 100 µM | TGI [4]: > 100 µM | TGI [8]: > 100 µM | TGI [5]: > 100 µM | TGI [6]: > 100 µM | TGI [7]: > 100 µM

C=CC(=O)OCCCS(=O)(=O)[O-].C=CC(=O)OCCCS(=O)(=O)[O-].NC1CCCCC1N.[Pt+4]
GI50 [1]: > 25 µM | TGI [1]: > 25 µM | GI50 [2]: > 25 µM | TGI [2]: > 25 µM | GI50 [3]: > 25 µM | TGI [3]: > 25 µM | GI50 [4]: > 25 µM | TGI [4]: > 25 µM | GI50 [8]: > 25 µM | TGI [8]: > 25 µM | GI50 [5]: > 25 µM | TGI [5]: > 25 µM | GI50 [6]: > 25 µM | TGI [6]: > 25 µM | GI50 [7]: > 25 µM | TGI [7]: > 25 µM

C=CCC(O)c1cc(OC)ccc1OC (configuration not stated)
TGI [1]: > 100 µM | TGI [2]: > 100 µM | TGI [9]: > 100 µM | TGI [4]: > 100 µM | TGI [8]: > 100 µM | TGI [5]: > 100 µM | TGI [6]: > 100 µM | TGI [7]: > 100 µM

O=C(/C=C/c1ccco1)N1CCN(Cc2ccccc2)CC1
TGI [1]: > 100 µM | TGI [2]: > 100 µM | TGI [3]: > 100 µM | TGI [9]: > 100 µM | TGI [8]: > 100 µM | TGI [5]: > 100 µM | TGI [6]: > 100 µM | TGI [7]: > 100 µM

CC(=O)Nc1ccc(S(=O)(=O)N/N=C(\C)CN2C(=O)c3ccccc3C2=O)cc1
TGI [1]: > 100 µM | TGI [2]: > 100 µM | TGI [3]: > 100 µM | TGI [4]: > 100 µM | TGI [8]: > 100 µM | TGI [5]: > 100 µM | TGI [6]: > 100 µM | TGI [7]: > 100 µM
